Data set [1] is described as follows: Half life in human lung S9 fraction after 60 mins by […] analysis. The format is ADME, tissue-based.
The target in data set [2] is 3',5'-cyclic-AMP phosphodiesterase 4B (Homo sapiens, UniProt Q07343). As to the kind of experiment: Inhibition of human recombinant PDE4B1 activity assessed as residual cAMP concentration by HTRF assay. (In TR-FRET formats the signal depends on donor and acceptor labels being close together.)
The target in data set [3] is 3',5'-cyclic-AMP phosphodiesterase 4D (Homo sapiens, UniProt Q08499).
Description: Inhibition of human recombinant PDE4D2 activity assessed as residual cAMP concentration by HTRF assay
Data set [4] is described as follows: Half life in human lung homogenate after 60 mins by […] analysis. Type of data set: ADME, tissue-based.
Data set [5] can be described thus: Half life in human plasma after 60 mins by […] analysis. Type of data set: ADME, cell-free.
Data set [6] in a line: Apparent permeability of the compound at pH 7.4 buffer by PAMPA. The format is physicochemical. A general note: PAMPA measures passive passage across an artificial lipid membrane.

A value given as a limit tells only on which side of the number the result lay.

3',5'-cyclic-AMP phosphodiesterase 4B, sequence (Q07343 whole entry): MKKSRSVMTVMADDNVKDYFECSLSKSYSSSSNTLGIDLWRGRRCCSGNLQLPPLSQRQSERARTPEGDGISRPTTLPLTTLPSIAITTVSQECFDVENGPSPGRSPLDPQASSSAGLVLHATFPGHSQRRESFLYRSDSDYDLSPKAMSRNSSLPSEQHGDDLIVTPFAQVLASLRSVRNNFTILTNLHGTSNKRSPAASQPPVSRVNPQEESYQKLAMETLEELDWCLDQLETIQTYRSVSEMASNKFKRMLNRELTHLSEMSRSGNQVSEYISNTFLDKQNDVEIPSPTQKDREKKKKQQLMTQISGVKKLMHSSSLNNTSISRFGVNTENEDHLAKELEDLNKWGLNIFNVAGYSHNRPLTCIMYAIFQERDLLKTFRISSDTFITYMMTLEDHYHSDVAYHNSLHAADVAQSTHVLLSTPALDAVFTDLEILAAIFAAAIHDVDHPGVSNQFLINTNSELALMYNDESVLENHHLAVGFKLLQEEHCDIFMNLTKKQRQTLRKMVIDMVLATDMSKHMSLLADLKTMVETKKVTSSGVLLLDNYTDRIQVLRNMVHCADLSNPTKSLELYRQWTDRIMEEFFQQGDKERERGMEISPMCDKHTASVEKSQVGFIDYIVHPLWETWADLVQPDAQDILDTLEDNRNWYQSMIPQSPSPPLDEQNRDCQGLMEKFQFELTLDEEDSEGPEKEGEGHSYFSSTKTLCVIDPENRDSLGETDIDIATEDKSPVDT
3',5'-cyclic-AMP phosphodiesterase 4D, sequence (Q08499 whole entry): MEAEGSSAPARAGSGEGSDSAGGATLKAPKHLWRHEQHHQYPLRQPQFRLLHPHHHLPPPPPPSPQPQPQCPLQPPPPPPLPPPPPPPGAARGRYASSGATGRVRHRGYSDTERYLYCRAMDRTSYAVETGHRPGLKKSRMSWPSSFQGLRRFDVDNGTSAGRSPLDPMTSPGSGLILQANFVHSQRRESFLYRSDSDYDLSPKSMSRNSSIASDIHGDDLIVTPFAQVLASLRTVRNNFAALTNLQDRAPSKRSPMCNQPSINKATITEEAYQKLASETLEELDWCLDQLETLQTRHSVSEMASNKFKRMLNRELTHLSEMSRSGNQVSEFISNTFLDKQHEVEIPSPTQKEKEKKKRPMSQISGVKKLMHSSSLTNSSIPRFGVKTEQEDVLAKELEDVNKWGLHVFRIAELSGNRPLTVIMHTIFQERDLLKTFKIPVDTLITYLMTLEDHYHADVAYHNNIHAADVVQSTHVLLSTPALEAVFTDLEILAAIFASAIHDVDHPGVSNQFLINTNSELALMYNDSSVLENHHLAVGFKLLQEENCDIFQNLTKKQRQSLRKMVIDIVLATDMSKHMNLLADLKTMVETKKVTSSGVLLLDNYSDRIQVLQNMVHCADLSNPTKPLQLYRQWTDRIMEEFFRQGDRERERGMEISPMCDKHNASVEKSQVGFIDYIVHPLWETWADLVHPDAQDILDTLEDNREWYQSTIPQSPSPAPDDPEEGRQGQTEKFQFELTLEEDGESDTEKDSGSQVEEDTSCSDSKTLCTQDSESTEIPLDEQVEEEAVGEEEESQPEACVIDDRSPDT

Broadly, the half-life is the time needed for the level to fall by half in the phase considered. Higher therefore signals slow decline. Broadly, the IC50 is the concentration that inhibits the measured activity by half. With `O=C(Nc1c(Cl)cncc1Cl)c1ccc(OC(F)F)c(OCCCNC2CCOC2=O)c1` (configuration not stated), the half-life is over 60 min in data set [1], over 60 min in data set [4] and under 5 min in data set [5]. Besides, the IC50 in data set [2] was determined as 5.4 nM; in data set [3], 18 nM.

As to `O=C(Nc1c(Cl)cncc1Cl)c1ccc(OC(F)F)c(OCCCN[C@@H]2CCOC2=O)c1`, the concentration for half-maximal inhibition (IC50) in data set [2] came out at 12 nM; in data set [3] it was 7.3 nM.

Take `O=C(Nc1c(Cl)cncc1Cl)c1ccc(OC(F)F)c(OCCCN[C@H]2CCOC2=O)c1`: the results for the IC50 in data set [2] and in data set [3] were 11 nM and 48 nM, respectively.

Broadly, the Papp is a coefficient for how fast a substance crosses the barrier. On to `O=C(Nc1c(Cl)cncc1Cl)c1ccc(OC(F)F)c(OCCCNC(CCO)C(=O)O)c1` (configuration not stated), for which the IC50 in data set [2] amounted to 740 nM; in data set [3] it was 2300 nM. Besides, the apparent permeability coefficient (Papp) in data set [6] stood at 0.02 ×10⁻⁶ cm/s.

As for `O=C(Nc1c(Cl)cncc1Cl)c1ccc(OC(F)F)c(OCCCN[C@H](CCO)C(=O)O)c1`, the figures for the IC50 in data set [2] and in data set [3] were 1700 nM and 7200 nM, respectively.

For `O=C(Nc1c(Cl)cncc1Cl)c1ccc(OC(F)F)c(OCCCN[C@@H](CCO)C(=O)O)c1`, the concentration for half-maximal inhibition (IC50) in data set [2] was 2700 nM; in data set [3], over 10000 nM.

In the case of `O=C(Nc1c(Cl)cncc1Cl)c1ccc(OC(F)F)c(OCCCSC2CCOC2=O)c1` (configuration not stated), the half-life was over 60 min in data set [1], 39 min in data set [4] and under 5 min in data set [5]. The half-inhibitory concentration (IC50) in data set [2] was 1.8 nM; in data set [3], 5.5 nM.

Consider `O=C(Nc1c(Cl)cncc1Cl)c1ccc(OC(F)F)c(OCCCSC(CCO)C(=O)O)c1` (configuration not stated), for which the 50% inhibitory concentration (IC50) in data set [2] was 5.5 nM; in data set [3] it was 9.9 nM. In addition, the apparent permeability coefficient (Papp) in data set [6] amounted to 0.14 ×10⁻⁶ cm/s.

As for `O=C(Nc1c(Cl)cncc1Cl)c1ccc(OC(F)F)c(OCCCCNC2CCOC2=O)c1` (configuration not stated), the values for the half-life in data set [1], in data set [4] and in data set [5] were over 60 min, over 60 min and under 5 min, respectively. Further, the IC50 came to 4 nM in data set [2] and 6.6 nM in data set [3]. The apparent permeability coefficient (Papp) in data set [6] turned out to be 4.7 ×10⁻⁶ cm/s.

In the case of `O=C(Nc1c(Cl)cncc1Cl)c1ccc(OC(F)F)c(OCCCCNC(CCO)C(=O)O)c1` (configuration not stated), the IC50 in data set [2] was determined as 180 nM; in data set [3], 150 nM. Moreover, the Papp in data set [6] was 0.03 ×10⁻⁶ cm/s.

As for `O=C(Nc1c(Cl)cncc1Cl)c1ccc(OC(F)F)c(OCCCCSC2CCOC2=O)c1` (configuration not stated), the half-life is over 60 min in data set [1] and under 5 min in data set [5]. Besides, the 50% inhibitory concentration (IC50) in data set [2] stood at 4.7 nM; in data set [3], 1.8 nM.

In the case of `O=C(Nc1c(Cl)cncc1Cl)c1ccc(OC(F)F)c(OCCCCSC(CCO)C(=O)O)c1` (configuration not stated), the results for the half-maximal inhibitory concentration (IC50) in data set [2] and in data set [3] were 8.8 nM and 4.5 nM, respectively. The apparent permeability (Papp) in data set [6] came to 0.05 ×10⁻⁶ cm/s.

Regarding `O=C(Nc1c(Cl)c[n+]([O-])cc1Cl)c1ccc(OC(F)F)c(OCCCNC2CCOC2=O)c1` (configuration not stated), the values for the IC50 in data set [2] and in data set [3] were 88 nM and 170 nM, respectively. This compound also gave a half-life in data set [5] of 8 min.

Consider `COC(=O)CNCCCOc1cc(C(=O)Nc2c(Cl)cncc2Cl)ccc1OC(F)F`, for which the IC50 was 21 nM in data set [2] and 32 nM in data set [3]. Also, the Papp in data set [6] is 8.9 ×10⁻⁶ cm/s. For the same compound, the half-life in data set [5] worked out at 19 min.

Consider `O=C(O)CNCCCOc1cc(C(=O)Nc2c(Cl)cncc2Cl)ccc1OC(F)F`, for which the IC50 in data set [2] was found to be 910 nM; in data set [3], 1500 nM. Also, the apparent permeability (Papp) in data set [6] was under 0.01 ×10⁻⁶ cm/s.

As to `CC(C)NCC(O)COc1cccc2ccccc12` (configuration not stated) [PROPRANOLOL], in data set [6], the Papp was 10 ×10⁻⁶ cm/s.

`CNC(=C[N+](=O)[O-])NCCSCc1ccc(CN(C)C)o1` [RANITIDINE]: the Papp in data set [6] was 0.14 ×10⁻⁶ cm/s.

The values above are taken from ChEMBL document CHEMBL3351837 (Bioorg Med Chem Lett, 2014).
